Laboratory results: patent US20090005398A1, “Methods For The Treatment of Central Nervous System Tumors” (priority 2007, published 2009)

Experiments:
[1] = system: A549; assay: Methylene blue growth inhibition assay; type: cell-based; details: Homo sapiens, 72 h
Experimental: (§1) Generally, exponentially growing cell lines of different tumor origins, cultured in appropriate media containing 10% fetal bovine serum at 37° C. in a 5% CO2 incubator were plated at low density (less than 2000 cells/well) in 96-well plates. Twenty four hours post-plating, cells were treated with different concentrations of compound ranging from 10 uM to 0.04 nM. Several wells were left untreated as a control. Seventy two hours post-treatment, cell numbers were determined using 100 μl per well of methylene blue (Sigma M9140) (0.5% in 50:50 Ethanol:water). Stain was incubated at room temperature for 30 minutes before plates were rinsed and dye solubilized in 1% N-lauroyl sarcosine, sodium salt, (Sigma L5125, in PBS) (further details of a methylene blue assay are described below). Plates were read on a microplate reader, measuring the OD at 620 nm.
(§2) Concentration of test compound that inhibited 50% of cell growth (IC50) was determined by 4 parameter fit of data using XLfit, (value of no cell control was subtracted from all samples for background). The data are shown in Table 1 below and represent a compilation of several different experiments, each performed using the general parameters outlined above, although minor variations may have been employed in some instances.
(§3) In one assay, normal human foreskin fibroblasts (HFF), human colon (HCT116, RKO), lung (H460, A549) and breast (MCF7) tumor cell lines were cultured in high glucose DMEM (Life Technologies) containing 10% fetal bovine serum (FBS) at 37° C. in a humidified 5% CO2, 95% air incubator. Cells were harvested using trypsin/EDTA, counted using a haemocytometer, and plated in 100 μL of culture media per well, at the following densities, in a 96-well tissue culture plate (Falcon 3075): HFF 5,000 cells/well, HCT116 3,000 cells/well, RKO 2,500 cells/well, H460 2,500 cells/well, A549 5,000 cells/well, MCF7 4,000 cells/well. The next day, compound was diluted in low glucose DMEM containing 100 μg/mL gentamicin, at twice the final required concentration, from 10 mM stock solutions in DMSO. 100 μL/well of these dilutions were added to the 100 μL of media currently in the assay plates. Medium containing 0.6% DMSO was added to control wells. The final concentration of DMSO in all wells was 0.3%. Cells were incubated at 37° C., 5% CO2 for 72 h. Medium was removed by aspiration. Cell biomass was estimated by staining cells with 80 μL per well methylene blue (Sigma M9140, 0.5% in 50:50 ethanol:water), and incubation at room temperature for 30-60 min. Stain was removed by aspiration and the plates rinsed by immersion in water, then air-dried. To release stain from the cells, 100 μL of solubilization solution was added (1% N-lauroyl sarcosine, Sodium salt, Sigma L5125, in PBS), and plates were shaken gently for about 30 min. Optical density at 620 nm was measured on a microplate reader. Percent inhibition of cell growth was calculated relative to vehicle treated control wells. Concentration of compound that inhibits 50% of cell growth (IC50) was interpolated using nonlinear regression (Levenberg-Marquardt) and the equation, y=Vmax*(1−(x/(K+x)))+Y2, where “K” was equal to the IC50.

[2] = system: H460; assay: Methylene blue growth inhibition assay; type: cell-based; details: Homo sapiens, NCI-H460, 72 h
Experimental: as §1, §2, §3

[3] = system: HCT116; assay: Methylene blue growth inhibition assay; type: cell-based; details: Homo sapiens, HCT-116, 72 h
Experimental: as §1, §2, §3

[4] = system: HFF (normal human foreskin fibroblasts); assay: Methylene blue growth inhibition assay; type: cell-based; details: Fibroblast, 72 h
Experimental: as §1, §2, §3

[5] = system: MCF7; assay: Methylene blue growth inhibition assay; type: cell-based; details: Homo sapiens, 72 h
Experimental: as §1, §2, §3

[6] = system: RKO; assay: Methylene blue growth inhibition assay; type: cell-based; details: Homo sapiens, 72 h
Experimental: as §1, §2, §3

[7] = Protein binding to human plasma proteins by equilibrium dialysis; type: in vitro ADME; details: pH 7.4, equilibrium dialysis 6 h, 37° C.
Experimental: 96 Well Plate (High Throughput Dialysis): Stock solution of compound was spiked into human plasma at a target concentration of 2000 ng/mL. The mixture was inverted gently several times to insure homogeneity and triplicate 50 μL aliquots were collected to verify initial concentrations. Following assembly of dialysis plate (HTDialysis membrane strips, molecular weight cut off limit of 12,000-14,000 daltons), spiked plasma (150 μL) was placed in the donor compartment of the well and Phosphate Buffered Saline pH 7.4 (150 μL) in the receiver compartment. Eight wells were set up per compound and plasma type. Plate was placed in a 37° C. incubator on a plate shaker. Following the 6 h incubation period, the plate was removed. Single 50 μL aliquots from each donor and receiver compartment (per well) were analyzed.
Sample analysis was by LC/MS/MS (results reported as Drug Peak Area/Internal Standard Peak Area ratios). Protein binding assay can also be performed using dialysis cells instead of HT Dialysis 96 well plates. In Table 1, % Protein Binding, +=>98%; ++=95-98%: +++=<95%.

[8] = system: glioma cell lines; assay: Washout assay, all cell lines together; type: cell-based; details: all seven glioma cell lines of Table 5
Experimental: Seven glioma cell lines that can double at least once over three days were thawed and grown to 70-80% confluency before being used in the assay. On day 1, for each cell line, 2-3×10^5 cells were seeded into each well in 6-well cell culture plates and incubated at 37° C. overnight. […] The plates were incubated at 37° C. for 3 days.
On day 5, the compound was efficiently washed four times with culture medium supplemented with 20% fetal bovine serum (FBS) and then washed once in buffered saline solution (PBS). The cells were trypsinized. For each of the concentrations, compound-treated cell lines were plated into five 96-well plates at 5000 cells per well. For the next 4 consecutive days, one plate of the cells was taken out of the incubator and cell proliferation was measured by MTT ELISA assay.
The washout assay is designed to follow the cells' recovery from exposure to the compound. Each glioma cell line was assayed at least twice. The criteria for evaluating sensitivity or resistance was Last Growth Back Concentration (LGC), if LGC<=30 nM, the cell line is considered sensitive; if LGC>=1 uM, it is considered resistant; if LGC is in between these two concentrations, the cell line is considered intermediate. Based on criteria set, all the glioma cell lines appeared to be sensitive to the compound of Example 1.

In the case of `C[C@@H](Oc1cc(-n2cnc3ccc(CN4CCN(C)CC4)cc32)sc1C(N)=O)c1ccccc1C(F)(F)F` [Example 1, 5-{6-[(4-Methylpiperazin-1-yl)methyl]-1H-benzimidazol-1-yl}-3-{(1R)-1-[2-(trifluoromethyl)phenyl]ethoxy}thiophene-2-carboxamide], the IC50 [1] is reported as < 100 nM, the IC50 [2] is reported as < 100 nM and the IC50 [3] is reported as < 100 nM. For the same compound, the IC50 [4] was < 100 nM, the IC50 [5] was < 100 nM and the IC50 [6] was < 100 nM. For the same compound, the fraction unbound at 6 h, 2000 ng/mL [7] was > 0.05 and the “sensitivity of glioma cell lines by LGC criteria” value [8] was “sensitive (LGC<=30 nM)”.
